Laboratory results taken from ChEMBL document CHEMBL1151202, “New imidazole alkaloids from the Indonesian sponge Leucetta chagosensis” (J Nat Prod, 2004).
Activity calls are given as the source filed them. No cut-off for these calls is given here.

Legend:
Artemia salina = assay: Toxicity in Artemia salina at 20 ug/mL; type: organism-based; settings: in vivo
Cladosporium herbarum = assay: Antifungal activity against Cladosporium herbarum DSM 63422 at 20 ug/disk after 24 hrs by agar plate diffusion assay; type: functional
HeLa = assay: Cytotoxicity against human HeLa cells at 10 ug/mL by MTT assay relative to control; type: functional
L5178Y = assay: Cytotoxicity against mouse L5178Y cells at 10 ug/mL by MTT assay relative to control; type: functional
PC-12 = assay: Cytotoxicity against rat PC12 cells by MTT assay; type: functional, cell-based

Row | Structure (SMILES) | Activity (Artemia salina) | Activity (Cladosporium herbarum) | Activity (HeLa) | Activity (L5178Y) | Activity (PC-12) | zone of inhibition at 20 µg/disc (Cladosporium herbarum; DSM 63422, 24 h, read-out: IZ)
1 | COc1ccc(-c2c3cc(O)c(OC)cc3cc3c2[nH]c(=N)n3C)cc1 [KEALIININE A] | 50% | inactive |  |  |  | 
2 | COc1ccc(Cc2[nH]c(=N)n(C)c2Cc2cc(OC)c(O)c(OC)c2)cc1 [NAAMINE G] | 10% |  | 29% | 46% | inactive | 20 mm
